The source of these data is patent US12180195B1, “6-(6-bromo-2-oxo-2H-chromen-3-yl)-4-(2,4-dichlorophenyl)-2-alkoxynicotinonitrile as an antimicrobial compound” (KING FAISAL UNIVERSITY, priority 2023, dated 2024).

Common to all, as to assay type: cell-based
Experiment [1] deals with Bacillus Cereus. Nature of the experiment: Agar plate disc-diffusion, antibacterial inhibition zone. The conditions noted are these: nutrient agar, 37° C., 48 hours, DMSO zone subtracted. How it is done:
(§1) The agar plate disc-diffusion method was applied. Sterilized filter papers (6 mm in diameter) were wetted with 10 μL of a solution of compounds 6-(6-bromo-2-oxo-2H-chromen-3-yl)-4-(2,4-dichlorophenyl)-2-ethoxynicotinonitrile 1 or 6-(6-bromo-2-oxo-2H-chromen-3-yl)-4-(2,4-dichlorophenyl)-2-methoxynicotinonitrile 2 to be tested, containing […], and the discs were allowed to air dry. The discs were then placed onto the surface of agar plates (nutrient agar for bacteria and Sabouraud's dextrose agar for fungi) seeded with the test organism. Each plate contained 15 mL of the agar medium, previously seeded with 0.2 mL of the broth culture of each organism pregrown for 18 hours. The plates were incubated at 37° C. for 48 hours, and 72 hours for fungi. The inhibition zones were measured in mm. Discs impregnated with DMSO were used as a control, and its inhibition zone was subtracted from the tested compound actual inhibition zone.
(§2) The results of the antimicrobial testing can be observed in Tables 1 and 2, below, using ciprofloxacin as a reference.
A general note: Agar diffusion results depend on both activity and mobility in agar.

Experiment [2] relates to Escherichia coli. The description is as above. The following applies: nutrient agar, 37° C., 48 hours, DMSO zone subtracted. How it is done: as §1, §2
Experiment [3] relates to Pseudomonas aeruginosa. The description is as above. The following applies: nutrient agar, 37° C., 48 hours, DMSO zone subtracted. How it is done:
as §1, §2

Experiment [4] concerns Staphylococcus aureus. The experiment is described as above. The following applies: nutrient agar, 37° C., 48 hours, DMSO zone subtracted. The protocol:
as §1, §2

Experiment [5] concerns Aspergillus flavus. Description: Agar plate disc-diffusion, antifungal inhibition zone. The following applies: Sabouraud's dextrose agar, 72 hours, DMSO zone subtracted. How it is done:
as §1, §2

The subject of experiment [6] is Chrysosporium keratinophilum. The description is as above. The conditions noted are these: Sabouraud's dextrose agar, 72 hours, DMSO zone subtracted. How it is done: as §1, §2
The test system of experiment [7] is different microbes. Nature of the experiment: Antimicrobial testing, overall statement in words. The following applies: summary of Tables 1 and 2, bacteria and fungi. The protocol: as §1
Their antibacterial activity was screened against gram positive bacteria namely Bacillus cereus and Staphylococcus aureus and gram-negative bacterial strains namely Pseudomonas aeruginosa and Escherichia coli, while their antifungal activity was screened against Aspergillus flavus and Chrysosporium keratinophilum.

[8] abbreviates: A = concentration of comp. = 10,000 μL.
[9] abbreviates: B = concentration of comp. = 30,000 μL.
[10] abbreviates: C = concentration of comp. = 50,000 μL.

Turning to `CCOc1nc(-c2cc3cc(Br)ccc3oc2=O)cc(-c2ccc(Cl)cc2Cl)c1C#N` [Compound 1, 6-(6-bromo-2-oxo-2H-chromen-3-yl)-4-(2,4-dichlorophenyl)-2-ethoxynicotinonitrile], the inhibition zone in experiment [1] (setting [8]) stood at 26 mm; in experiment [1] (setting [9]), 27 mm; in experiment [1] (setting [10]) it was 38 mm; in experiment [2] (setting [8]) it was 30 mm; in experiment [2] (setting [9]), 38 mm; in experiment [2] (setting [10]), 54 mm. Besides, the inhibition zone in experiment [3] (setting [8]) is given as 24 mm; in experiment [3] (setting [9]) it was 31 mm; in experiment [3] (setting [10]), 42 mm; in experiment [4] (setting [8]), 13 mm; in experiment [4] (setting [9]) it was 20 mm; in experiment [4] (setting [10]) it was 27 mm. Also, the inhibition zone turned out to be 26 mm in experiment [5] (setting [8]); 28 mm in experiment [5] (setting [9]); 39 mm in experiment [5] (setting [10]); 22 mm in experiment [6] (setting [8]); 33 mm in experiment [6] (setting [9]); 39 mm in experiment [6] (setting [10]). In experiment [7], the “antimicrobial activity (in words)” value is listed as “high antimicrobial activities”.

Regarding `O=C(O)c1cn(C2CC2)c2cc(N3CCNCC3)c(F)cc2c1=O` [Cip., ciprofloxacin, reference compound], the inhibition zone came to 29 mm in experiment [1] (setting [8]); 30 mm in experiment [1] (setting [9]); 42 mm in experiment [1] (setting [10]); 30 mm in experiment [2] (setting [8]); 39 mm in experiment [2] (setting [9]); 60 mm in experiment [2] (setting [10]). Further, the inhibition zone in experiment [3] (setting [8]) came out at 29 mm; in experiment [3] (setting [9]), 30 mm; in experiment [3] (setting [10]) it was 53 mm; in experiment [4] (setting [8]) it was 43 mm; in experiment [4] (setting [9]), 44 mm; in experiment [4] (setting [10]), 53 mm. In addition, the inhibition zone is on record as 29 mm in experiment [5] (setting [8]); 30 mm in experiment [5] (setting [9]); 42 mm in experiment [5] (setting [10]); 29 mm in experiment [6] (setting [8]); 30 mm in experiment [6] (setting [9]); 53 mm in experiment [6] (setting [10]).

Turning to `COc1nc(-c2cc3cc(Br)ccc3oc2=O)cc(-c2ccc(Cl)cc2Cl)c1C#N` [Compound 2, 6-(6-bromo-2-oxo-2H-chromen-3-yl)-4-(2,4-dichlorophenyl)-2-methoxynicotinonitrile], the inhibition zone stood at 27 mm in experiment [1] (setting [8]); 28 mm in experiment [1] (setting [9]); 40 mm in experiment [1] (setting [10]); 28 mm in experiment [2] (setting [8]); 37 mm in experiment [2] (setting [9]); 49 mm in experiment [2] (setting [10]). Moreover, the inhibition zone is recorded as 24 mm in experiment [3] (setting [8]); 27 mm in experiment [3] (setting [9]); 42 mm in experiment [3] (setting [10]); 14 mm in experiment [4] (setting [8]); 21 mm in experiment [4] (setting [9]); 25 mm in experiment [4] (setting [10]). Further, the inhibition zone in experiment [5] (setting [8]) is given as 17 mm; in experiment [5] (setting [9]), 21 mm; in experiment [5] (setting [10]), 29 mm; in experiment [6] (setting [8]), 28 mm; in experiment [6] (setting [9]) it was 29 mm; in experiment [6] (setting [10]), 46 mm. Also, the “antimicrobial activity (in words)” value in experiment [7] is “high antimicrobial activities”.
